Data on 19 compounds can be found in patent US20050288323A1, “Octahydro-indolizine and quinolizine and hexahydro-pyrrolizine” (priority 2000, published 2005).

In the first assay the target is T1, human histamine H3 receptor (Homo sapiens, UniProt Q9Y5N1).
T1 construct: One microgram of supercoiled H3 receptor cDNA was added to the cells and mixed; expressed in transfected cells; membranes
T1 sequence (Q9Y5N1 whole entry): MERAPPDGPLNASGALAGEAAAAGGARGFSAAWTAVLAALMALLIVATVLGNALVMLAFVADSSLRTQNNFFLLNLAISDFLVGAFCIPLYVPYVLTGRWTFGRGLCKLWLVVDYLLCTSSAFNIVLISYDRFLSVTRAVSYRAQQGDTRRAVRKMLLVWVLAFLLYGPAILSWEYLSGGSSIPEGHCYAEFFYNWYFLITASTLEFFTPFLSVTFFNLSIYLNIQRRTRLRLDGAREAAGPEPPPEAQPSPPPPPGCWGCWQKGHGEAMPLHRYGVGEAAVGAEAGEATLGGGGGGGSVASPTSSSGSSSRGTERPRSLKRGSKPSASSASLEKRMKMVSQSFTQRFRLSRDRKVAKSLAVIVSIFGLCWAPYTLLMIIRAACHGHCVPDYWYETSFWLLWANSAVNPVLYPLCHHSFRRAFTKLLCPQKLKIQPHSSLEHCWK
Kind of assay: [3H]-N-methylhistamine binding. To be noted: Table 1; [3H]-N-methylhistamine binding. As to the method:
Thus in the present invention receptor binding was determined using the human histamine H3 receptor (See Lovenberg et al Mol. Pharmacol. 1999, 1107). Screening using the human receptor is particularly important for the identification of new therapies for the treatment of human disease. Conventional binding assays for example are determined using rat synaptosomes (Garbarg et al J. Pharmacol. Exp. Ther. 1992, 263, 304), rat cortical membranes (West et al Mol. Pharmacol. 1990, 610), and guinea pig brain (Korte et al Biochem. Biophys. Res. Commun. 1990, 978). Only limited studies have been performed previously using human tissue but these allude to significant differences in the pharmacology of rodent and primate receptors (West et al Eur. J. Pharmacol. 1999, 233).
Transfection of Cells with Human Histamine Receptor
A 10 cm tissue culture dish with a confluent monolayer of SK-N-MC cells was split two days prior to transfection. Using sterile technique the media was removed and the cells were detached from the dish by the addition of trypsin. One fifth of the cells were then placed onto a new 10 cm dish. Cells were grown in a 37° C. incubator with 5% CO2 in Minimal Essential Media Eagle with 10% Fetal Bovine Serum. After two days cells were approximately 80% confluent. These were removed from the dish with trypsin and pelleted in a clinical centrifuge. The pellet was then re-suspended in 400 μL complete media and transferred to an electroporation cuvette with a 0.4 cm gap between the electrodes (Bio-Rad #165-2088). One microgram of supercoiled H3 receptor cDNA was added to the cells and mixed. The voltage for the electroporation was set at 0.25 kV, the capacitance was set at 960 μF. After electroporation the cells were diluted into 10 mL complete media and plated onto four 10 cm dishes. Because of the variability in the efficiency of electroporation, four different concentrations of cells were plated. The ratios used were; 1:20, 1:10, 1:5, with the remainder of the cells being added to the fourth dish. The cells were allowed to recover for 24 hours before adding the selection media (complete media with 600 μg/mL G418). After 10 days dishes were analyzed for surviving colonies of cells. Dishes with well isolated colonies were used. Cells from individual colonies were isolated and tested. SK-N-MC cells were used because they give efficient coupling for inhibition of adenylate cyclase. The clones that gave the most robust inhibition of adenylate cyclase in response to histamine were used for further study.
[^3H]-N-methylhistamine Binding
Cell pellets from histamine H3 receptor-expressing SK-N-MC cells were homogenized in 20 mM TrisHCl/0.5 mM EDTA. Supernatants from a 800 g spin were collected, recentrifuged at 30,000 g for 30 minutes. Pellets were re-homogenized in 50 mM Tris/5 mM EDTA (pH 7.4). Membranes were incubated with 0.8 nM [^3H]-N-methylhistamine plus/minus test compounds for 45 min at 25° C. and harvested by rapid filtration over GF/C glass fiber filters (pretreated with 0.3% polyethylenimine) followed by four washes with ice cold buffer. Filters were dried, added to 4 mL scintillation cocktail and then counted on a liquid scintillation counter. Non-specific binding was defined with 10 μM histamine. The pKi values were calculated based on a Kd of 800 pM and a ligand concentration ([L]) of 800 pM according to the formula: Ki=(IC50)/(1+([L]/(Kd))
By Ki is commonly meant the equilibrium dissociation constant of an inhibitor or competing ligand from its target. Read a high Ki as lower affinity. In the case of `Brc1ccc([C@@H]2CC[C@H]3CCCCN32)cc1` (racemic) [Example 2], the affinity corresponds to a Ki of 1000 nM.

The same assay, now with this note: Table 5; [3H]-N-methylhistamine binding.
As to `c1coc(CNc2ccc([C@H]3CC[C@H]4CCCCN43)cc2)c1` (racemic) [Example 130], the Ki is 647 nM. Compound `[O-][n+]1ccc(CNc2ccc([C@H]3CC[C@H]4CCCCN43)cc2)cc1` (racemic) [Example 133] returned a Ki of 4380 nM.

The assay is the same for the next values; noted with them: [3H]-N-methylhistamine 0.8 nM, membranes of H3 receptor-expressing SK-N-MC cells.
In turn, `NCc1ccc(Sc2ccc([C@H]3CC[C@H]4CCCCN43)cc2)cc1` (racemic) [Example 44] displayed a Ki of 9 nM.

Compound `O=C(O)c1ccc(Sc2ccc([C@H]3CC[C@H]4CCCCN43)cc2)cc1` (racemic) [Example 42, tran-3-[4-(4-Carboxylicphenylthio)phenyl]octahydroindolizine] came in with a Ki of 21 nM. `CN(CCCCCN1CCCCC1)c1ccc([C@@H]2CC[C@@H]3CCCCN32)cc1` (relative stereo) [Example 114, trans-3-[4-(N-Methyl-N-5-piperidylpentylamino)phenyl]octahydroindolizine] returned a Ki of 9 nM. `c1cc(Sc2ccc([C@H]3CC[C@H]4CCCCN43)cc2)ccn1` [Example 137, (R, R)-Octahydro-3-[4-(4-pyridinylthio)phenyl]indolizine]: the Ki is 3.8 nM. `c1cc([C@@H]2CCC[C@@H]3CCCN32)ccc1OCCCCCN1CCCCC1` [Example 65] displayed a Ki of 1 nM. The same measure, in the same setting: to `CN(C)c1ccc([C@@H]2CC[C@@H]3CCCCN32)cc1` (relative stereo) [Example 96, trans-3-(4-(N,N-Dimethylamino)phenyl)octahydroindolizine] belongs 380 nM; to `C=CC(=O)N(C)c1ccc([C@@H]2CC[C@@H]3CCCCN32)cc1` (relative stereo) [Example 108, N-Methyl-N-[4-(trans-Octahydro-3-indolizinyl)phenyl]propenamide], 2770 nM; to `CS(=O)(=O)N1CCC(Nc2ccc([C@H]3CC[C@H]4CCCCN43)cc2)CC1` (racemic) [Example 102, trans-3-[4-(N-Methylsulfonyl-4-aminopiperidine)phenyl]octahydroindolizine], 243 nM.

Compound `CCN(c1ccc([C@H]2CC[C@H]3CCCCN32)cc1)C1CCN(S(C)(=O)=O)CC1` (racemic) [Example 104, trans-3-[4-(N-Ethyl-N-4-N-methylsufonylpiperidinylamino)phenyl]octahydroindolizine] registered a Ki of 1780 nM.

In the case of `O=C(CCCCN1CCCCC1)Nc1ccc([C@@H]2CC[C@@H]3CCCCN32)cc1` (relative stereo) [Example 112, trans-3-[4-(N-5-Piperidylpentanamido)phenyl]octahydroindolizine], the Ki is 2.1 nM. As to `FC(F)(F)Oc1ccc(-c2ccc([C@H]3CC[C@H]4CCCCN43)cc2)cc1` (relative stereo) [Example 47, trans-3-[4-(4-Trifluromethoxyphenyl)phenyl]octahydroindolizine], the affinity corresponds to a Ki of 1220 nM.

Compound `c1cc([C@H]2CC[C@H]3CCCCN32)ccc1OCCCN1CCCCC1` [Example 93, (R, R)-3-(4-(3-Piperidinylpropoxy)phenyl)octahydroindolizine] returned a Ki of 0.06 nM. `c1cc(Sc2ccc([C@@H]3CC[C@@H]4CCCCN43)cc2)ccn1` [Example 138, (S, S)-Octahydro-3-[4-(4-pyridinylthio)phenyl]indolizine] registered a Ki of 100 nM. Take `COc1ccccc1[C@H]1C[C@@H]2CCCCN2C1` (relative stereo) [Example 70, anti-2-(2-Methoxyphenyl)octahydroindolizine]: the Ki is 792 nM.

The compound “N-Methyl-N-[4-(trans-Octahydro-3-indolizinyl)phenyl]-3-piperidinylpropenamide [Example 109]” showed a Ki of 1 nM. Still for that read-out and setting: the value for `Oc1ccc([C@@H]2CCC[C@@H]3CCCN32)cc1` (racemic) [Example 60, 5-(4-Hydroxyphenyl)octahydroindolizine] was 1400 nM.
